The record followed here is publication PMC5399312 (Journal of Experimental & Clinical Cancer Research : CR, 2017).

One data set deals with SW480 cells xenograft. The following applies: for decrease of size and weight of tumors: 16 days, versus vehicle. Here is the method:
All animal experiments were performed in accordance with the Guide for the Care and Use of Laboratory Animals of Tongji Medical College, Huazhong University of Science and Technology and approved by the Ethics Committee. CB-17/ SCID mice (male, 4 weeks old) were purchased from Beijing HFK Bioscience CO., LTD (Beijing, China). SW480 cells were inoculated subcutaneously (3 × 10^6 cells) into the left flank of each mouse. […] The dose volume was 0.1 mL/10 g body weight, and the weights of mice were recorded every day. Meanwhile, the tumor volumes were measured with vernier calipers and calculated by the following formula: (A × B^2)/2, where A was length and B was width of the two-dimension tumor. After animals were sacrificed, tumor weights were measured. The inhibition ratio (%) was calculated using the following equation: I% = 100% × [Wtumor (vehicle) − Wtumor (treated)]/Wtumor (vehicle)

A further data set has as its target T1, HK2 (Homo sapiens, UniProt P52789).
T1 construct: made in house; host or cells: E. coli BL21 (DE3)
T1 sequence (P52789 1-917): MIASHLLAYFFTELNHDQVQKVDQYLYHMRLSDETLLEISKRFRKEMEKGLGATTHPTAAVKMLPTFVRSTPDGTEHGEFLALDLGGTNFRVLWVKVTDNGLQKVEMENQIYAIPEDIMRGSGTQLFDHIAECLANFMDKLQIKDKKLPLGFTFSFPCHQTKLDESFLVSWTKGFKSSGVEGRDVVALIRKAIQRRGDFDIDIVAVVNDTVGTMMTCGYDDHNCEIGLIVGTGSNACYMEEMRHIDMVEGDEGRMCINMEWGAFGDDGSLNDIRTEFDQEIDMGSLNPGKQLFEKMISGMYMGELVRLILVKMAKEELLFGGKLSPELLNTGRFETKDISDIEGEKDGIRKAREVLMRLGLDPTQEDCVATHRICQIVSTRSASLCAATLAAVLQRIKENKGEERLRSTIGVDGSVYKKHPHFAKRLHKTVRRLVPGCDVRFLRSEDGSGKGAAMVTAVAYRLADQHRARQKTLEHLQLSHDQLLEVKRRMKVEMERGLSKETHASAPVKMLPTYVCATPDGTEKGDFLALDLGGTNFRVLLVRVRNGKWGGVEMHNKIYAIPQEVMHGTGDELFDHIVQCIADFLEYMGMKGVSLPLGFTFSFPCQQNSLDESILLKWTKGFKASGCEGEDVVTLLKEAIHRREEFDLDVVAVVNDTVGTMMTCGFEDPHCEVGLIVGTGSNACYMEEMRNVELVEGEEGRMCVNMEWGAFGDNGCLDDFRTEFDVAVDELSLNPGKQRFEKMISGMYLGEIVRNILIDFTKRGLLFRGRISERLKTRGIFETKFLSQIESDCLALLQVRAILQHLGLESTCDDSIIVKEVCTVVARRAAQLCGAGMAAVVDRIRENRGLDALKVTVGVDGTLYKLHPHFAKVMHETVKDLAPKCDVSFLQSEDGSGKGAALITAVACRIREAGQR
Nature of the data set: In vitro enzyme inhibition assay (G6P-DH coupled, NADH 340 nm). Type of data set: biochemical. The following applies: for Vmax: Lineweaver-Burk.

The subject of data set [1] is SW480 cells. Put plainly: Flow cytometric analysis for apoptosis (Annexin-V/PI). Type of data set: cell-based, human. The conditions noted are these: 48 h, control 0.7%. The procedure:
Then the cells were harvested, washed twice with ice-cold PBS, and mixed in 100 μL of 1× binding buffer (10 mM HEPES/ NaOH, pH 7.4, 140 mM NaCl, 2.5 mM CaCl2). After culturing for 15 min at room temperature in Annexin-V/PI double staining liquid (Nanjing KeyGen Biotech. Inc.), the cells were examined by flow cytometry (BD Biosciences, FACSCalibur).
On the technique in general: In flow cytometry, cells or beads pass a laser one at a time.

In a further data set the target is T2, G6P-DH (Leuconostoc mesenteroides, UniProt P11411).
T2 construct: purchased Roche (Switzerland)
T2 sequence (P11411 1-486): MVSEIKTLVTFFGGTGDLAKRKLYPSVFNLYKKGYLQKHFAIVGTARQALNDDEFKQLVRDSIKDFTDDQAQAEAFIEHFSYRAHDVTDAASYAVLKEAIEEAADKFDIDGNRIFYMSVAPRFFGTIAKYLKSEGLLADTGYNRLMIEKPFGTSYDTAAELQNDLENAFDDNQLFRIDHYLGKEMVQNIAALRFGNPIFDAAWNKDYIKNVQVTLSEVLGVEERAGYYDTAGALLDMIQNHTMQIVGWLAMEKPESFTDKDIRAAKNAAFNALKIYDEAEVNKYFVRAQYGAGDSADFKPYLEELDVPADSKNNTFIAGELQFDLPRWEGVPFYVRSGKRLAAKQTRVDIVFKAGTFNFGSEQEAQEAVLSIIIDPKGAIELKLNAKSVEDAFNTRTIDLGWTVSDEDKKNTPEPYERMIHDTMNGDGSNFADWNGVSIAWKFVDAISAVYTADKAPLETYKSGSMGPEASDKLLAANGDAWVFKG
Put plainly: Interference with coupling enzyme. Type of data set: biochemical. Here is the method:
Then 85 μL assay mix containing 100 mM Tris HCl pH 8.0, 5 mM MgCl2, 200 mM Glucose, 0.8 mM ATP, 1 mM NAD^+, 0.25 Units of G6P-DH, was added.

For data set [2], the system named is SW480 cells. Nature of the data set: Soft agar colony formation assay. Type of data set: cell-based, human. The conditions noted are these: 100 μM. The procedure:
About 0.6% agar was poured into the six-well plate. […] Media was changed every three days, and colonies were further observed for 10 days. Colonies were then stained with 0.01% of crystal violet staining solution for 2 h.

In a further data set the test system is SMMC-7721. Nature of the data set: Cytotoxicity test (CCK-8). Type of data set: cell-based. The conditions noted are these: Homo sapiens, SMMC-7721, 48 h. Here is the method: (§1) Met was used as a positive control. All experiments were performed in triplicate.
The next data set has as its system MCF-7. Nature of the data set: Cytotoxicity test (CCK-8). The following applies: Homo sapiens, MCF7; MCF-7, 48 h. Type of data set: cell-based. Here is the method: as §1
For a further data set, the system named is Lovo. Nature of the data set: Cytotoxicity test (CCK-8). Type of data set: cell-based. The conditions noted are these: Homo sapiens, 48 h. Here is the method:
as §1

Data set [3] is described as follows: Cytotoxicity test (CCK-8). Type of data set: cell-based. The procedure:
as §1

The next data set has as its system SW480. Put plainly: Cytotoxicity test (CCK-8). Type of data set: cell-based. The following applies: Homo sapiens, SW480, 48 h. Here is the method: as §1
A further data set concerns HCT116. Put plainly: Cytotoxicity test (CCK-8). Type of data set: cell-based. The following applies: Homo sapiens, HCT-116; HCT116, 48 h. Here is the method: as §1

SMILES strings stand for the structures. Read-outs that look alike come from different tables or passages of the source.

For orientation: IC50 means the concentration that inhibits the measured activity by half. Higher therefore signals weaker potency. Regarding `NC(CO)C(=O)NNCc1ccc(O)c(O)c1O` (centres unmarked) [Benz, Benserazide], the “decrease of size and weight of tumors” value in the data set on SW480 cells xenograft (300 mg/Kg per day i.p.) was 30.1%; in the data set on SW480 cells xenograft (600 mg/Kg per day i.p.), 60.3%. In addition, in the data set with SW480 cells xenograft (mouse, in vivo), the toxicity in mice result is recorded as “no toxicity shown”. Further, the “body weight and histomorphology” value with SW480 cells xenograft (tumor-bearing mice, daily i.p. 16 days) was “no remarkable loss of body weight and change of histomorphology”. Also, the Vmax is listed as 0.037 OD/min at HK2 (Benz 5 μM), 0.029 OD/min at HK2 (Benz 10 μM) and 0.018 OD/min on HK2 (Benz 20 μM). Moreover, at HK2 (versus glucose), the mechanism of inhibition result is “combined mechanism of both competitive and noncompetitive binding”. The values for the apoptotic death in the data set on SW480 cells [1] (75 μM), in the data set on SW480 cells [1] (150 μM) and with SW480 cells [1] (300 μM) were 10.4%, 22.5% and 44.1%, respectively. At G6P-DH, the “interference with G6P-DH activity” value is reported as “No Benz interference”. The “anchorage-independent growth (colony formation)” value in the data set with SW480 cells [2] is listed as “dramatically reduced the ability to form colonies”. In addition, the 50% inhibitory concentration (IC50) in the data set on SMMC-7721 came to 210 ± 7.9 µM; in the data set on MCF-7, 186 ± 12.5 µM; with Lovo it was 151 ± 4.5 µM; in the data set with SW480 it was 143 ± 7 µM; in the data set with HCT116 it was 181 ± 11.5 µM. The IC50 at 48 h in data set [3] (African green monkey, Vero normal cells) is above 500 µM; in [3] (human, LO2 normal cells) it was above 500 µM.
